In PubChem BioAssay (NCI):
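Values below derive from 48-hour exposures of cells grown in 96-well plates, with endpoints linearly interpolated between the two concentrations bracketing the appropriate inhibition level. Here, GI50 denotes the concentration required for 50% inhibition of growth. TGI: concentration producing complete growth inhibition.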

Legend:
Assay in all cases: growth of human tumour cells (NCI), 48 h
[1] = test system: MDA-MB-435
[2] = test system: A498 renal
[3] = test system: EKVX NSCLC
[4] = test system: MOLT-4 leukemia
[5] = test system: KM12 colon
[6] = test system: 786-0 renal
[7] = test system: HCT-116 colon
[8] = test system: HL-60(TB) leukemia
[9] = test system: SK-MEL-2 melanoma
[10] = test system: SN12C renal
[11] = test system: CCRF-CEM leukemia
[12] = test system: SF-539 CNS
[13] = test system: UACC-62 melanoma
[14] = test system: SF-268 CNS
[15] = test system: NCI-H460 lung
[16] = test system: HOP-92 NSCLC
[17] = test system: SF-295 CNS
[18] = test system: OVCAR-5 ovarian
[19] = test system: K-562 leukemia
[20] = test system: U251 CNS
[21] = test system: MDA-MB-231 breast
[22] = test system: COLO 205 colon
[23] = test system: PC-3 prostate
[24] = test system: T-47D breast
[25] = test system: SK-MEL-28 melanoma
[26] = test system: ACHN renal
[27] = test system: NCI-H23 lung
[28] = test system: OVCAR-8 ovarian
[29] = test system: M14 melanoma
[30] = test system: DU-145 prostate
[31] = test system: BT-549 breast
[32] = test system: NCI-H522 lung
[33] = test system: SK-MEL-5 melanoma
[34] = test system: SR leukemia
[35] = test system: NCI-H226 lung
[36] = test system: HCT-15 colon
[37] = test system: TK-10 renal
[38] = test system: IGROV1 ovarian
[39] = test system: OVCAR-4 ovarian
[40] = test system: HT29 colon
[41] = test system: SW-620 colon
[42] = test system: CAKI-1 renal
[43] = test system: MALME-3M melanoma
[44] = test system: MCF7 breast
[45] = test system: NCI/ADR-RES ovarian
[46] = test system: MDA-MB-468 breast
[47] = test system: A549 NSCLC
[48] = test system: SNB-75 CNS
[49] = test system: LOX IMVI melanoma
[50] = test system: SK-OV-3 ovarian
[51] = test system: HCC-2998 colon
[52] = test system: HOP-62 NSCLC
[53] = test system: OVCAR-3 ovarian
[54] = test system: HS 578T breast
[55] = test system: RXF 393 renal
[56] = test system: SNB-19 CNS
[57] = test system: UO-31 renal
[58] = test system: UACC-257 melanoma

`CC(=O)Oc1ccccc1C(=O)[Se]C(=NC(C)C)NC(C)C` showed a GI50 [1] of 1730 nM, a TGI [1] of 3240 nM and a GI50 [2] of 3340 nM. It also gave a TGI [2] of 20600 nM, a GI50 [3] of 1670 nM and a TGI [3] of 3160 nM. It also gave a GI50 [4] of 2350 nM, a TGI [4] of 6150 nM and a GI50 [5] of 1900 nM. For the same compound, the TGI [5] was 3860 nM, the GI50 [6] was 1740 nM and the TGI [6] was 3210 nM. It also gave a GI50 [7] of 1600 nM, a TGI [7] of 3140 nM and a GI50 [8] of 2180 nM. The TGI [8] was 5700 nM, the GI50 [9] was 1970 nM and the TGI [9] was 4010 nM. The GI50 [10] was 1720 nM, the TGI [10] was 3160 nM and the GI50 [11] was 3170 nM. It also gave a TGI [11] greater than 100000 nM, a GI50 [12] of 1750 nM and a TGI [12] of 3150 nM. It also gave a GI50 [13] of 1940 nM, a TGI [13] of 4150 nM and a GI50 [14] of 2340 nM. The TGI [14] was 6350 nM, the GI50 [15] was 815 nM and the TGI [15] was 4390 nM. The GI50 [16] was 1910 nM, the TGI [16] was 4320 nM and the GI50 [17] was 369 nM. The TGI [17] was 1630 nM, the GI50 [18] was 1760 nM and the TGI [18] was 3340 nM. For the same compound, the GI50 [19] was 2840 nM, the TGI [19] was 9190 nM and the GI50 [20] was 1530 nM. For the same compound, the TGI [20] was 3200 nM, the GI50 [21] was 2160 nM and the TGI [21] was 4960 nM. The GI50 [22] was 2350 nM, the TGI [22] was 5060 nM and the GI50 [23] was 1700 nM. The TGI [23] was 3610 nM, the GI50 [24] was 2200 nM and the TGI [24] was 5260 nM. For the same compound, the GI50 [25] was 1790 nM, the TGI [25] was 3270 nM and the GI50 [26] was 1760 nM. For the same compound, the TGI [26] was 3160 nM, the GI50 [27] was 1940 nM and the TGI [27] was 4150 nM. For the same compound, the GI50 [28] was 1870 nM, the TGI [28] was 3580 nM and the GI50 [29] was 1840 nM. It also gave a TGI [29] of 3370 nM, a GI50 [30] of 1940 nM and a TGI [30] of 3590 nM. For the same compound, the GI50 [31] was 1520 nM, the TGI [31] was 2880 nM and the GI50 [32] was 1690 nM. For the same compound, the TGI [32] was 3320 nM, the GI50 [33] was 1830 nM and the TGI [33] was 3510 nM. It also gave a GI50 [34] of 2110 nM, a TGI [34] of 5440 nM and a GI50 [35] of 1840 nM. The TGI [35] was 5700 nM, the GI50 [36] was 1840 nM and the TGI [36] was 3690 nM. The GI50 [37] was 1630 nM, the TGI [37] was 3070 nM and the GI50 [38] was 1720 nM. For the same compound, the TGI [38] was 3230 nM, the GI50 [39] was 1720 nM and the TGI [39] was 3130 nM. The GI50 [40] was 2310 nM, the TGI [40] was 5840 nM and the GI50 [41] was 1920 nM. It also gave a TGI [41] of 4110 nM, a GI50 [42] of 1680 nM and a TGI [42] of 3050 nM. For the same compound, the GI50 [43] was 1860 nM, the TGI [43] was 3450 nM and the GI50 [44] was 1950 nM. It also gave a TGI [44] of 4000 nM, a GI50 [45] of 2220 nM and a TGI [45] of 4980 nM. For the same compound, the GI50 [46] was 1750 nM, the TGI [46] was 3480 nM and the GI50 [47] was 3080 nM. For the same compound, the TGI [47] was greater than 100000 nM, the GI50 [48] was 1350 nM and the TGI [48] was 2660 nM. It also gave a GI50 [49] of 1750 nM, a TGI [49] of 3420 nM and a GI50 [50] of 1810 nM. For the same compound, the TGI [50] was 3330 nM, the GI50 [51] was 1860 nM and the TGI [51] was 3430 nM. The GI50 [52] was 777 nM, the TGI [52] was 2400 nM and the GI50 [53] was 1900 nM. The TGI [53] was 3560 nM, the GI50 [54] was 2400 nM and the TGI [54] was 9150 nM. The GI50 [55] was 1720 nM, the TGI [55] was 3170 nM and the GI50 [56] was 1090 nM. It also gave a TGI [56] of 2370 nM, a GI50 [57] of 1680 nM and a TGI [57] of 3050 nM. It also gave a GI50 [58] of 1960 nM and a TGI [58] of 3750 nM.
